“And” between values parts separate entries of the source, which are not always exact repeats. Identical values can stand only once.
Assays:
LAT1 [1] = tested on: LAT1; set-up: method as in PMID 21770378, PMID 11901210, PMID 25205473, PMID 30048132; details: cited from earlier work
PC12 cells = assay: In vitro uptake (binding) assay in PC12 cells; format: cell-based; details: 30mins incubation, 1 million cells
Experimental: (§1) Both [^18F]FDOPA enantiomers were initially assessed in vitro in all NET cells.
(§2) In vitro binding assays were carried out, in triplicate, in PBS with 0.5% FBS, for 30mins at ambient temperatures using 1 million cells and repeated three times. Blocking studies were carried out using 10meq of the commercial LAT1 inhibitor, 2-Aminobicyclo[2.2.1]heptane-2-carboxylic acid (TOCRIS, MN, USA). Following incubation with each tracer, cells were rinsed three times with cold PBS prior to being counted on an automated gamma counter (1282 Compugamma CS; Pharmacia/LKBNuclear, Inc.) along with external standards. Obtained counts were converted into percentage incubated dose per million cells based on normalization to external standards. Experiments were performed in triplicate and repeated three times.

STC-1 cells = assay: In vitro uptake (binding) assay in STC-1 cells; format: cell-based; details: 30mins incubation, 1 million cells, % incubated dose/million cells
Experimental: as §1, §2

PC12 xenografts [2] = assay: In vivo PET-CT quantitative image analysis, PC12 xenografts; details: PC12 tumors, NSG mice, 9MBq
Experimental: (§3) All animal studies were carried out according to regulations set forth and approved by the Johns Hopkins Animal Care and Use Committee. Female, 6- to 8-weeks-old immunodeficient NOD scid gamma (NSG) mice were subcutaneously inoculated with 1 million PC12, STC-1 or COLO-320 cells in […] of Hank’s balanced salt solution in the top flank. Tumors of 4–6 mm in diameter (typically 14-21 days post inoculation) were utilized for in vivo imaging or ex vivo biodistribution studies.
(§4) Mice (n=4) were injected with 9MBq (250μCi) of each tracer in 150μL of saline intravenously and anesthetized with 3% isoflurane prior to being placed on the scanner bed. Mice were kept warm with an external light source and maintained at 1% isoflurane levels while being scanned. PET imaging (2 beds; 10 min per bed) was carried out using an ARGUS small-animal PET/CT scanner (Sedecal). A CT scan (512 projections) was obtained at the end of each PET scan for anatomical co-registration. For in vivo blocking experiments, mice were injected with 10meq of LAT1 inhibitor. PET data were reconstructed using the 2-dimensional ordered subsets-expectation maximization algorithm (2D-OSEM) and corrected for dead time and radioactive decay. Data visualization and image generation were carried out using Amira 2019.1 (ThermoFisher Scientific).
(§5) Quantitative in vivo image analysis was carried out in AMIDE (SourceForge) 1.0.4 utilizing ellipsoid region-of-interest volume integrations with 3 slices entailing a depth of 1.9 mm per slice. The %ID per cc values were calculated based on a calibration factor obtained from a phantom (known radioactive quantity in a known volume).

STC-1 xenografts [3] = assay: In vivo PET-CT quantitative image analysis, STC-1 xenografts; details: STC-1 tumors, NSG mice, 9MBq
Experimental: as §3, §4, §5

COLO-320 xenografts [4] = assay: In vivo PET-CT quantitative image analysis, COLO-320 xenografts; details: COLO-320 tumors, NSG mice, 9MBq
Experimental: as §3, §4, §5

STC-1 xenografts [5] = assay: Ex vivo biodistribution in NSG mice bearing STC-1 xenografts; details: STC-1 xenograft NSG mice, 1.5MBq i.v.
Experimental: as §3
(§6) Mice (n=5 per group) were intravenously injected with 1.5MBq (40μCi) of each tracer in 150μL of saline. Ex vivo biodistribution studies were performed at 30min and 120min time points after tracer administration. Blood, liver, spleen, heart, lungs, kidneys, small intestines, stomach, muscle, fat, bone, bladder, brain and tumor tissues were retrieved, weighed, and counted in an automated gamma counter (1282 Compugamma CS). Percentage injected dose per gram (%ID/g) values were calculated based on normalization to external standards, counted in triplicate, and accounted for signal-decay correction.

COLO-320 xenografts [6] = assay: Ex vivo biodistribution in NSG mice bearing COLO-320 xenografts; details: for small intestines retention, fold higher than tumor uptake: COLO-320 mice
Experimental: as §3, §6

PC12 xenografts [7] = assay: Ex vivo biodistribution in NSG mice bearing PC12 xenografts; details: PC12 xenograft NSG mice, 1.5MBq i.v.
Experimental: as §3, §6

[8] = tested on: NET xenografts (STC-1, PC12, COLO-320); assay: Ex vivo biodistribution, across all NET mouse models; format: in vivo, mice; details: for brain accumulation, average in all NET mice: average over STC-1, COLO-320 and PC12 mice
Experimental: as §3, §6

LAT1 [9] = assay: In vivo PET-CT blocking by BCH in NET mouse models; set-up: species or system mice; details: all NET mouse models (PC12, STC-1, COLO-320), 10meq LAT1 inhibitor
Experimental: as §4, §5

[10] = COLO-320 xenograft NSG mice, 30min p.i., 1.5MBq i.v.
[11] = COLO-320 xenograft NSG mice, 120min p.i., 1.5MBq i.v.

N[C@@H](Cc1ccc(O)c(O)c1)C(=O)O [L-DOPA, 3,4-dihydroxy-L-phenylalanine]
IC50 (LAT1 [1]): 69 ± 29 µM

N[C@@H](Cc1cc(O)c(O)cc1[18F])C(=O)O [L-[^18F]FDOPA, 3,4-dihydroxy-6-[^18F]fluoro-L-phenylalanine]
in vitro uptake (PC12 cells): 19.73±0.71 % (incubated dose/million cells)
in vitro uptake (STC-1 cells): 2.97±0.07%
tumor uptake, quantitative PET image analysis (PC12 xenografts [2]; 30min post i.v. injection): 35.73±2.50 %ID/cc
tumor uptake, quantitative PET image analysis (PC12 xenografts [2]; 120min post i.v. injection): 18.82±1.55 %ID/cc
tumor uptake, quantitative PET image analysis (STC-1 xenografts [3]; 30min post i.v. injection): 33.29±1.66 %ID/cc
tumor uptake, quantitative PET image analysis (STC-1 xenografts [3]; 120min post i.v. injection): 10.38±1.31 %ID/cc
tumor uptake, quantitative PET image analysis (COLO-320 xenografts [4]; 30min post i.v. injection): 11.99±0.50 %ID/cc
tumor uptake, quantitative PET image analysis (COLO-320 xenografts [4]; 120min post i.v. injection): 15.10±1.30 %ID/cc
Biodistribution, Bladder (STC-1 xenografts [5]; 30min p.i.): 5.15 %ID/g
Biodistribution, Blood (STC-1 xenografts [5]; 30min p.i.): 3.94 %ID/g
Biodistribution, Bone (STC-1 xenografts [5]; 30min p.i.): 3.09 %ID/g
Biodistribution, Brain (STC-1 xenografts [5]; 30min p.i.): 2.16 %ID/g
Biodistribution, Fat (STC-1 xenografts [5]; 30min p.i.): 1.34 %ID/g
Biodistribution, Heart (STC-1 xenografts [5]; 30min p.i.): 2.72 %ID/g
Biodistribution, Kidneys (STC-1 xenografts [5]; 30min p.i.): 8.90 %ID/g
Biodistribution, Liver (STC-1 xenografts [5]; 30min p.i.): 4.87 %ID/g
Biodistribution, Lungs (STC-1 xenografts [5]; 30min p.i.): 4.13 %ID/g
Biodistribution, Muscle (STC-1 xenografts [5]; 30min p.i.): 3.63 %ID/g
Biodistribution, Pancreas (STC-1 xenografts [5]; 30min p.i.): 44.22 %ID/g
Biodistribution, Small Intestines (STC-1 xenografts [5]; 30min p.i.): 16.04±2.47 %ID/g and 16.43 %ID/g
Biodistribution, Spleen (STC-1 xenografts [5]; 30min p.i.): 3.98 %ID/g
Biodistribution, Stomach (STC-1 xenografts [5]; 30min p.i.): 8.97 %ID/g
Biodistribution, Tumor (STC-1 xenografts [5]; 30min p.i.): 11.06 %ID/g
Biodistribution, Bladder (STC-1 xenografts [5]; 120min p.i.): 8.80 %ID/g
Biodistribution, Blood (STC-1 xenografts [5]; 120min p.i.): 1.47 %ID/g
Biodistribution, Bone (STC-1 xenografts [5]; 120min p.i.): 5.40 %ID/g
Biodistribution, Brain (STC-1 xenografts [5]; 120min p.i.): 1.07 %ID/g
Biodistribution, Fat (STC-1 xenografts [5]; 120min p.i.): 0.78 %ID/g
Biodistribution, Heart (STC-1 xenografts [5]; 120min p.i.): 2.34 %ID/g
Biodistribution, Kidneys (STC-1 xenografts [5]; 120min p.i.): 4.00 %ID/g
Biodistribution, Liver (STC-1 xenografts [5]; 120min p.i.): 1.73 %ID/g
Biodistribution, Lungs (STC-1 xenografts [5]; 120min p.i.): 1.89 %ID/g
Biodistribution, Muscle (STC-1 xenografts [5]; 120min p.i.): 2.75 %ID/g
Biodistribution, Pancreas (STC-1 xenografts [5]; 120min p.i.): 20±0.89 %ID/g and 20.71 %ID/g
Biodistribution, Small Intestines (STC-1 xenografts [5]; 120min p.i.): 5.08 %ID/g
Biodistribution, Spleen (STC-1 xenografts [5]; 120min p.i.): 6.55 %ID/g
Biodistribution, Stomach (STC-1 xenografts [5]; 120min p.i.): 6.83 %ID/g
Biodistribution, Tumor (STC-1 xenografts [5]; 120min p.i.): 6.98 %ID/g
small intestines retention, fold higher than tumor uptake (COLO-320 xenografts [6]; 30min): 5 fold
small intestines retention, fold higher than tumor uptake (COLO-320 xenografts [6]; 120min): 3 fold
Biodistribution, Bladder (COLO-320 xenografts [6]; [10]): 8.38 %ID/g
Biodistribution, Blood (COLO-320 xenografts [6]; [10]): 5.53 %ID/g
Biodistribution, Bone (COLO-320 xenografts [6]; [10]): 5.05 %ID/g
Biodistribution, Brain (COLO-320 xenografts [6]; [10]): 2.58 %ID/g
Biodistribution, Fat (COLO-320 xenografts [6]; [10]): 0.95 %ID/g
Biodistribution, Heart (COLO-320 xenografts [6]; [10]): 3.85 %ID/g
Biodistribution, Kidneys (COLO-320 xenografts [6]; [10]): 13.60 %ID/g
Biodistribution, Liver (COLO-320 xenografts [6]; [10]): 10.68 %ID/g
Biodistribution, Lungs (COLO-320 xenografts [6]; [10]): 6.11 %ID/g
Biodistribution, Muscle (COLO-320 xenografts [6]; [10]): 5.27 %ID/g
Biodistribution, Pancreas (COLO-320 xenografts [6]; [10]): 57.82 %ID/g
Biodistribution, Small Intestines (COLO-320 xenografts [6]; [10]): 15.72 %ID/g
Biodistribution, Spleen (COLO-320 xenografts [6]; [10]): 5.72 %ID/g
Biodistribution, Stomach (COLO-320 xenografts [6]; [10]): 11.27 %ID/g
Biodistribution, Tumor (COLO-320 xenografts [6]; [10]): 5.15 %ID/g
Biodistribution, Bladder (COLO-320 xenografts [6]; [11]): 14.73 %ID/g
Biodistribution, Blood (COLO-320 xenografts [6]; [11]): 2.44 %ID/g
Biodistribution, Bone (COLO-320 xenografts [6]; [11]): 7.40 %ID/g
Biodistribution, Brain (COLO-320 xenografts [6]; [11]): 1.28 %ID/g
Biodistribution, Fat (COLO-320 xenografts [6]; [11]): 1.76 %ID/g
Biodistribution, Heart (COLO-320 xenografts [6]; [11]): 2.74 %ID/g
Biodistribution, Kidneys (COLO-320 xenografts [6]; [11]): 4.16 %ID/g
Biodistribution, Liver (COLO-320 xenografts [6]; [11]): 2.85 %ID/g
Biodistribution, Lungs (COLO-320 xenografts [6]; [11]): 2.55 %ID/g
Biodistribution, Muscle (COLO-320 xenografts [6]; [11]): 4.40 %ID/g
Biodistribution, Pancreas (COLO-320 xenografts [6]; [11]): 37±5.43 %ID/g and 37.13 %ID/g
Biodistribution, Small Intestines (COLO-320 xenografts [6]; [11]): 8.66 %ID/g
Biodistribution, Spleen (COLO-320 xenografts [6]; [11]): 6.72 %ID/g
Biodistribution, Stomach (COLO-320 xenografts [6]; [11]): 7.99 %ID/g
Biodistribution, Bladder (PC12 xenografts [7]; 30min p.i.): 7.24 %ID/g
Biodistribution, Blood (PC12 xenografts [7]; 30min p.i.): 4.14 %ID/g
Biodistribution, Bone (PC12 xenografts [7]; 30min p.i.): 3.86 %ID/g
Biodistribution, Brain (PC12 xenografts [7]; 30min p.i.): 1.90 %ID/g
Biodistribution, Fat (PC12 xenografts [7]; 30min p.i.): 1.25 %ID/g
Biodistribution, Heart (PC12 xenografts [7]; 30min p.i.): 2.96 %ID/g
Biodistribution, Kidneys (PC12 xenografts [7]; 30min p.i.): 14.60 %ID/g
Biodistribution, Liver (PC12 xenografts [7]; 30min p.i.): 8.59 %ID/g
Biodistribution, Lungs (PC12 xenografts [7]; 30min p.i.): 4.57 %ID/g
Biodistribution, Muscle (PC12 xenografts [7]; 30min p.i.): 4.70 %ID/g
Biodistribution, Pancreas (PC12 xenografts [7]; 30min p.i.): 50.08 %ID/g
Biodistribution, Small Intestines (PC12 xenografts [7]; 30min p.i.): 11.50 %ID/g
Biodistribution, Spleen (PC12 xenografts [7]; 30min p.i.): 4.30 %ID/g
Biodistribution, Stomach (PC12 xenografts [7]; 30min p.i.): 9.04 %ID/g
Biodistribution, Bladder (PC12 xenografts [7]; 120min p.i.): 14.06 %ID/g
Biodistribution, Blood (PC12 xenografts [7]; 120min p.i.): 2.19 %ID/g
Biodistribution, Bone (PC12 xenografts [7]; 120min p.i.): 7.19 %ID/g
Biodistribution, Brain (PC12 xenografts [7]; 120min p.i.): 1.31 %ID/g
Biodistribution, Fat (PC12 xenografts [7]; 120min p.i.): 1.78 %ID/g
Biodistribution, Heart (PC12 xenografts [7]; 120min p.i.): 2.45 %ID/g
Biodistribution, Kidneys (PC12 xenografts [7]; 120min p.i.): 4.84 %ID/g
Biodistribution, Liver (PC12 xenografts [7]; 120min p.i.): 3.01 %ID/g
Biodistribution, Lungs (PC12 xenografts [7]; 120min p.i.): 2.43 %ID/g
Biodistribution, Muscle (PC12 xenografts [7]; 120min p.i.): 3.48 %ID/g
Biodistribution, Pancreas (PC12 xenografts [7]; 120min p.i.): 36.66 %ID/g
Biodistribution, Small Intestines (PC12 xenografts [7]; 120min p.i.): 10.02 %ID/g
Biodistribution, Spleen (PC12 xenografts [7]; 120min p.i.): 6.11 %ID/g
Biodistribution, Stomach (PC12 xenografts [7]; 120min p.i.): 8.28 %ID/g
brain accumulation, average in all NET mice ([8]; 30min p.i.): 2.21±0.17 %ID/g
brain accumulation, average in all NET mice ([8]; 120min p.i.): 1.22±0.16 %ID/g
tumor uptake, fold higher in STC-1 than in COLO-320 tumors ([8]; STC-1 vs COLO-320 tumors): > 2 fold
tumor uptake after in vivo blocking by BCH (LAT1 [9]): significantly reduced

Reference: publication PMC6791383, “A side-by-side evaluation of [^18F]FDOPA enantiomers for non-invasive detection of neuroendocrine tumors by positron emission tomography” (Oncotarget, 2019)
